{"source": "patent US10155743B2", "about": "“Glutarimide derivatives, use thereof, pharmaceutical composition based thereon and methods for producing glutarimide derivatives” (OBSCHESTVO S OGRANICHENNOI OTVETSTVENNOSTIYU …, priority 2013, dated 2018)", "key": {"[1]": {"tested_on": "mucous membrane of nasal passages, formalin-induced acute rhinosinusitis", "test": "Acute rhinosinusitis rat model (induced by intranasal 7.5% formalin solution)", "format": "in vivo, Wistar rats", "details": "rats; for The number of caliciform cells within 1 mm of the mucous membrane of the nasal septum: tested compounds 27 mg/kg for 7 days after induction, M ± m; for Macroscopic changes in the mucous membrane of nasal passages: Muculent or mucopurulent catarrh (number of animals) / Macroscopic changes in the mucous membrane of nasal passages: Without changes (number of animals): tested compounds 27 mg/kg for 7 days, count out of n of the group", "procedure": "Morphological studies of histologic preparations were conducted with a Leica DMLS light-optical microscope (Leica Microsystems, Germany). Micro-morphometric assessment was performed by using an ocular micrometer on a Leica DMLB microscope.\nAcute rhinosinusitis was induced by intranasal administration of 20 μl of 7.5% formalin solution (aqueous solution comprising 40% formaldehyde, 8% methyl alcohol, and 52% water) to each nasal passage of rats.\nAdministration of formalin to rat nasal passages leads to the dissemination of inflammation to adjacent tissues, resulting in a clinical pattern similar to the symptoms of rhinosinusitis in a human.\nAfter an acclimatization period, the following groups were formed: • intact animals administered intragastrically a saline solution in an amount of 0.2 ml, the induction of acute rhinosinusitis was not performed; • a control group consisted of the animals administered intragastrically a saline solution in an amount of 0.2 ml for 7 days after induction of acute rhinosinusitis; • animals administered intramuscularly dexamethasone at a dose of 0.33 mg/kg for 7 days after induction of acute rhinosinusitis; and • animals administered the tested compounds at a dose of 27 mg/kg for 7 days after induction of acute rhinosinusitis.\nClinical observation of each animal was performed every day at least twice daily.\nIn the experiment with Wistar rats, the induction of acute rhinosinusitis by administration of a 7.5% formalin solution to nasal passages caused in the control group of animals pronounced pathological changes characterizing the development of an acute inflammation process in the nasal mucous. The caused pathology was characterized by congestion, hyperplasia, focal necrosis of the nasal meatus mucous membrane, an increased number of caliciform cells, pronounced infiltration by mononuclear cells and leucocytes, and mucus hyperproduction by submucosal glands.\nThe mucous and submucous membranes of both nasal passages (respiratory and olfactory regions) of the experimental animals were subjected to a morphological analysis to evaluate a specific activity of the compounds.\nFor microscopic examination, the sections were stained with hematoxylin and eosin. Detection of acid mukopolysaccharides, the production of which is increased in an inflammation, was performed by histochemical staining of the preparation with Alcian Blue (pH 2.5). The comparison and histological evaluation of changes were performed versus the group of intact rats.\nAfter slaughter, the gross appearance of inflammation in the nasal passages was studied in each animal. Histological, hystochemical and morphological studies of rats were intended to evaluate the following characteristics of nasal passages: congestion of the mucous membrane; hyperplasia and necrosis of nasal epithelium, the number of caliciform cells within 1 mm of the mucous membrane of the nasal septum, and the character of inflammation.\nIn this study, the efficiency of the mucociliary system was evaluated by the number of caliciform cells and, as a consequence, microscopic changes in the mucous membrane of the nasal passages."}, "[2]": {"tested_on": "human respiratory syncytial virus (strain A2, ATCC VR-1540)", "format": "in vivo", "details": "Balb/c mice, cyclophosphan 100 mg/kg 5 days before infection; 30 mg/kg once daily for 5 days from 24 h; score from possible 4; M ± SD, n = 5"}, "[3]": {"tested_on": "hRV strain (GKV reg. No. 2730)", "test": "Antiviral activity against rhinovirus in mice (body weight, lung weight, infectious titer in lungs)", "format": "in vivo"}, "[4]": {"tested_on": "influenza virus strain A/California/07/09 (H1N1) pdm09", "test": "animal or person", "format": "in vivo, white outbred female mice", "details": "unidentified influenza virus, H1N1, in Mus musculus, po, 336 h, read-out: Mortality rate, %"}, "[5]": {"tested_on": "Coxsackie A2-virus (strain HCXV A2)", "test": "Antiviral activity against Coxsackie virus in vivo (mortality of infected mice)", "parameters": "species or system white mice", "details": "mice; for inhibition in vivo at 30 mg/kg / mortality at 30 mg/kg: Mus musculus, po; for inhibition in vivo at 30 mg/kg: 168 h, read-out: Protective index (%); for inhibition in vivo at 30 mg/kg / Average expectancy life (days), Relative / Average expectancy life (days), Vs. control: 10LD50 HCXV A2, 30 mg/kg orally once daily for 7 days; for mortality at 30 mg/kg: 360 h, 10LD50 HCXV A2 i.m., 30 mg/kg orally once daily for 7 days from 24 h after infection, 15 days monitoring, read-out: Total mortality rate, %; for Average expectancy life (days), Vs. control: difference to virus control"}, "[6]": {"details": "30 mg/kg orally once daily, day 2 after infection"}, "[7]": {"details": "30 mg/kg orally once daily, day 3 after infection"}, "[8]": {"details": "30 mg/kg orally once daily, day 4 after infection"}, "[9]": {"details": "30 mg/kg orally, difference control minus experimental group"}, "[10]": {"details": "30 mg/kg orally, lung suspension titrated in Hela cell culture"}}, "data": [{"compound": "CC1(C)CC(=O)N(CCc2cnc[nH]2)C(=O)C1", "note": "[Compound 3]", "values": [{"measurement": "The number of caliciform cells within 1 mm of the mucous membrane of the nasal septum", "setting": "[1]", "value": "35.8 ± 0.9"}, {"measurement": "Macroscopic changes in the mucous membrane of nasal passages: Muculent or mucopurulent catarrh (number of animals)", "setting": "[1]", "value": 7}, {"measurement": "Macroscopic changes in the mucous membrane of nasal passages: Without changes (number of animals)", "setting": "[1]", "value": 5}, {"measurement": "Degree of pulmonary edema on day 5 after infection, score", "setting": "[2]", "value": "1.6 ± 0.89", "unit": "score"}]}, {"compound": "O=C1CCCC(=O)N1CCC1CCCN1", "note": "(centres unmarked) [Compound 4]", "values": [{"measurement": "Degree of pulmonary edema on day 5 after infection, score", "setting": "[2]", "value": "1.95 ± 0.31", "unit": "score"}, {"measurement": "Body weight of the mice after infection with hRV, day 0", "setting": "[3]; 30 mg/kg orally once daily for 5 days starting 12 hours after infection, day 0", "value": "7.77 ± 1.02"}, {"measurement": "Body weight of the mice after infection with hRV, day 1", "setting": "[3]; 30 mg/kg orally once daily, day 1 after infection", "value": "7.27 ± 1.27"}, {"measurement": "Body weight of the mice after infection with hRV, day 2", "setting": "[3]; [6]", "value": "12.66 ± 2.32"}, {"measurement": "Lung weight of the mice after infection with hRV, day 2", "setting": "[3]; [6]", "value": "142 ± 4.81"}, {"measurement": "Body weight of the mice after infection with hRV, day 3", "setting": "[3]; [7]", "value": "13.14 ± 1.5"}, {"measurement": "Lung weight of the mice after infection with hRV, day 3", "setting": "[3]; [7]", "value": "135.9 ± 4.18"}, {"measurement": "Body weight of the mice after infection with hRV, day 4", "setting": "[3]; [8]", "value": "13.23 ± 1.38"}, {"measurement": "Lung weight of the mice after infection with hRV, day 4", "setting": "[3]; [8]", "value": "134.2 ± 3.68"}, {"measurement": "Suppression of the reproduction of the virus in mouse lungs, Δ lg, Day 2 after infection", "setting": "[3]; [9]", "value": "1.65 ± 0.65 Δ lg"}, {"measurement": "Suppression of the reproduction of the virus in mouse lungs, Δ lg, Day 3 after infection", "setting": "[3]; [9]", "value": "1.9 ± 0.27 Δ lg"}, {"measurement": "Suppression of the reproduction of the virus in mouse lungs, Δ lg, Day 4 after infection", "setting": "[3]; [9]", "value": "2.2 ± 4.68 Δ lg"}, {"measurement": "Infectious titer of the virus in lungs, lg TCID50, Day 2 after infection", "setting": "[3]; [10]", "value": "2.35 ± 0.65", "unit": "lg TCID50"}, {"measurement": "Infectious titer of the virus in lungs, lg TCID50, Day 3 after infection", "setting": "[3]; [10]", "value": "0.6 ± 0.27", "unit": "lg TCID50"}, {"measurement": "Infectious titer of the virus in lungs, lg TCID50, Day 4 after infection", "setting": "[3]; [10]", "value": "0 ± 0", "unit": "lg TCID50"}, {"measurement": "mortality at 30 mg/kg", "setting": "[4]", "value": 65, "unit": "%"}]}, {"compound": "Cn1cnc(CCN2C(=O)CCCC2=O)c1", "note": "[Compound 5]", "values": [{"measurement": "Degree of pulmonary edema on day 5 after infection, score", "setting": "[2]", "value": "1.10 ± 0.19", "unit": "score"}, {"measurement": "mortality at 30 mg/kg", "setting": "[4]", "value": 45, "unit": "%"}]}, {"compound": "O=C1CCCC(=O)N1CCc1nccs1", "note": "[Compound 6]", "values": [{"measurement": "The number of caliciform cells within 1 mm of the mucous membrane of the nasal septum", "setting": "[1]", "value": "36.5 ± 0.8"}, {"measurement": "Macroscopic changes in the mucous membrane of nasal passages: Muculent or mucopurulent catarrh (number of animals)", "setting": "[1]", "value": 4}, {"measurement": "Macroscopic changes in the mucous membrane of nasal passages: Without changes (number of animals)", "setting": "[1]", "value": 2}, {"measurement": "Degree of pulmonary edema on day 5 after infection, score", "setting": "[2]", "value": "0.90 ± 0.22", "unit": "score"}]}, {"compound": "O=C1CCCC(=O)N1CCc1ccncc1", "note": "[Compound 9]", "values": [{"measurement": "Degree of pulmonary edema on day 5 after infection, score", "setting": "[2]", "value": "1.00 ± 0.17", "unit": "score"}]}, {"compound": "CC1(C)CCC(=O)N(CCc2c[nH]cn2)C1=O", "note": "[Compound 20]", "values": [{"measurement": "Macroscopic changes in the mucous membrane of nasal passages: Muculent or mucopurulent catarrh (number of animals)", "setting": "[1]", "value": 4}, {"measurement": "Macroscopic changes in the mucous membrane of nasal passages: Without changes (number of animals)", "setting": "[1]", "value": 4}, {"measurement": "mortality at 30 mg/kg", "setting": "[4]", "value": 50, "unit": "%"}]}, {"compound": "O=C1CCCC(=O)N1CCN1CCCC1", "note": "[Compound 23]", "values": [{"measurement": "inhibition in vivo at 30 mg/kg", "setting": "[5]", "value": 36, "unit": "%"}, {"measurement": "mortality at 30 mg/kg", "setting": "[5]", "value": 50, "unit": "%"}, {"measurement": "Average expectancy life (days), Relative", "setting": "[5]", "value": 23.8, "unit": "days"}, {"measurement": "Average expectancy life (days), Vs. control", "setting": "[5]", "value": "+13.1 days"}, {"measurement": "mortality at 30 mg/kg", "setting": "[4]", "value": 40, "unit": "%"}]}, {"compound": "O=C1CCCC(=O)N1CCn1ccnc1", "note": "[Compound 30]", "values": [{"measurement": "inhibition in vivo at 30 mg/kg", "setting": "[5]", "value": 18, "unit": "%"}, {"measurement": "mortality at 30 mg/kg", "setting": "[5]", "value": 60, "unit": "%"}, {"measurement": "Average expectancy life (days), Relative", "setting": "[5]", "value": 13.1, "unit": "days"}, {"measurement": "Average expectancy life (days), Vs. control", "setting": "[5]", "value": "+2.4 days"}, {"measurement": "mortality at 30 mg/kg", "setting": "[4]", "value": 50, "unit": "%"}]}, {"compound": "O=C1CCCC(=O)N1CCc1cn[nH]n1", "note": "[Compound 35]", "values": [{"measurement": "inhibition in vivo at 30 mg/kg", "setting": "[5]", "value": 27, "unit": "%"}, {"measurement": "mortality at 30 mg/kg", "setting": "[5]", "value": 53.3, "unit": "%"}, {"measurement": "Average expectancy life (days), Relative", "setting": "[5]", "value": 16.6, "unit": "days"}, {"measurement": "Average expectancy life (days), Vs. control", "setting": "[5]", "value": "+5.9 days"}, {"measurement": "mortality at 30 mg/kg", "setting": "[4]", "value": 55, "unit": "%"}]}, {"compound": "O=C1CCCC(=O)N1CCc1nnn[nH]1", "note": "[Compound 36]", "values": [{"measurement": "inhibition in vivo at 30 mg/kg", "setting": "[5]", "value": 27, "unit": "%"}, {"measurement": "mortality at 30 mg/kg", "setting": "[5]", "value": 53.3, "unit": "%"}, {"measurement": "Average expectancy life (days), Relative", "setting": "[5]", "value": 16.7, "unit": "days"}, {"measurement": "Average expectancy life (days), Vs. control", "setting": "[5]", "value": "+6.0 days"}, {"measurement": "mortality at 30 mg/kg", "setting": "[4]", "value": 60, "unit": "%"}]}, {"compound": "O=C1CCCC(=O)N1CCC1CCNC1", "note": "(centres unmarked) [Compound 120]", "values": [{"measurement": "Degree of pulmonary edema on day 5 after infection, score", "setting": "[2]", "value": "1.05 ± 0.14", "unit": "score"}]}, {"compound": "O=C1CCCC(=O)N1CCC1CCCNC1", "note": "(centres unmarked) [Compound 121]", "values": [{"measurement": "Degree of pulmonary edema on day 5 after infection, score", "setting": "[2]", "value": "0.90 ± 0.21", "unit": "score"}]}, {"compound": "O=C1CCCC(=O)N1CCC1CCNCC1", "note": "[Compound 123]", "values": [{"measurement": "Degree of pulmonary edema on day 5 after infection, score", "setting": "[2]", "value": "1.30 ± 0.17", "unit": "score"}]}]}
